Molecules are shown by their SMILES.

The values that follow come from patent US7345067B2, “Aniline derivatives, their manufacture and use as pharmaceutical agents” (Hoffmann-La Roche Inc., priority 2003, dated 2008).

One data set deals with T1, PPARα (Homo sapiens, UniProt Q07869).
T1 construct: PPARα (aa 167 to 469); made in house; host or cells: E. coli BL21 (pLysS)
T1 sequence (Q07869 167-468 limits assumed): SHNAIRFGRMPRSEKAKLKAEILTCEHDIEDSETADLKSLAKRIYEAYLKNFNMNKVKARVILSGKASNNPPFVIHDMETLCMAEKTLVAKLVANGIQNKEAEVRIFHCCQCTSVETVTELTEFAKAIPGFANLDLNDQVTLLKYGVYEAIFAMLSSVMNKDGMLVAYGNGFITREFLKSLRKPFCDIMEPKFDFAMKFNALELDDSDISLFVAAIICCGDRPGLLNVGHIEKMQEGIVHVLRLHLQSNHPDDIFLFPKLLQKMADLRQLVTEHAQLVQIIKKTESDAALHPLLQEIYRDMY
The data set can be described thus: Radioligand binding assay (SPA), PPARα receptor binding. The settings on record: GST-PPARα-LBD fusion protein. The text has this: (§1) Background information on the performed assays can be found in: Nichols J S et al. “Development of a scintillation proximity assay for peroxisome proliferator-activated receptor gamma ligand binding domain”, (1998) Anal. Biochem. 257: 112-119.
(§2) Full-length cDNA clones for humans PPARδ and PPARα and mouse PPARγ were obtained by RT-PCR from human adipose and mouse liver cRNA, respectively, cloned into plasmid vectors and verified by DNA sequencing. Bacterial and mammalian expression vectors were constructed to produce glutathione-s-transferase (GST) and Gal4 DNA binding domain proteins fused to the ligand binding domains (LBD) of PPARδ (aa 139 to 442), PPARγ (aa 174 to 476) and PPARα (aa 167 to 469). To accomplish this, the portions of the cloned sequences encoding the LBDs were amplified from the full-length clones by PCR and then subcloned into the plasmid vectors. Final clones were verified by DNA sequence analysis.
(§3) Induction, expression, and purification of GST-LBD fusion proteins were performed in E. coli strain BL21 (pLysS) cells by standard methods (Ref: Current Protocols in Molecular Biology, Wiley Press, edited by Ausubel et al.).
(§4) PPARα receptor binding was assayed in TKE50 (50 mM Tris-HCl, pH 8, 50 mM KCl, 2 mM EDTA, 0.1 mg/ml fatty acid-free BSA and 10 mM DTT). For each 96 well reaction an 140 ng equivalent of GST-PPARα-LBD fusion protein was bound to 10 μg SPA beads (PharmaciaAmersham) in a final volume of 50 μl by shaking. The resulting slurry was incubated for 1 h at RT and centrifuged for 2 min at 1300 g. The supernatant containing unbound protein was removed and the semidry pellet containing the receptor-coated beads was resolved in 50 μl of TKE. For radioligand binding e.g. 10000 dpm of 2(S)-(2-benzoyl-phenylamino)-3-{4-[1,1-d]tritio-2-(5-methyl-2-phenyl-oxazol-4-yl)-ethoxy]-phenyl}-propionic acid or 2,3-ditritio-2(S)-methoxy-3-{4-[2-(5-methyl-2-phenyl-oxazol-4-yl)-ethoxy]-benzo[b]thiophen-7-yl}-propionic acid in 50 ul were added, the reaction incubated at RT for 1 h and scintillation proximity counting performed. All binding assays were performed in 96 well plates and the amount of bound ligand measured on a Packard TopCount using OptiPlates (Packard). Nonspecific binding was determined in the presence of 10^−4 M unlabelled compound. Dose response curves were done in triplicates within a range of concentration from 10^−10 M to 10^−4 M.

The target in another data set is T2, PPARγ (Mus musculus, UniProt P37238).
T2 construct: PPARγ (aa 174 to 476); made in house; host or cells: E. coli BL21 (pLysS)
T2 sequence (P37238 204-505): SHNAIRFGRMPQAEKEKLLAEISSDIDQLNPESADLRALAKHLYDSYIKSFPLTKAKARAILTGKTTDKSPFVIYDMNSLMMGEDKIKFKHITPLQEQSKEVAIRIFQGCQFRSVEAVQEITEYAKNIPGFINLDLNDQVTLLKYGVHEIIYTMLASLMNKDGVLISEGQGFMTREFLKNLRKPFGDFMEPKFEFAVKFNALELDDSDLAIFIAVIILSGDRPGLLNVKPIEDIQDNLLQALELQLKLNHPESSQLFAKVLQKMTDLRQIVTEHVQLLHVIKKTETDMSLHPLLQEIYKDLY
The data set can be described thus: Radioligand binding assay (SPA), PPARγ receptor binding. The conditions noted are these: GST-PPARγ-LBD fusion protein.
From the text: as §1, §2, §3
as §4, with “PPARγ receptor” for “PPARα receptor”, “of GST-PPARγ-LBD” for “of GST-PPARα-LBD”, “50 ul” for “50 μl”, “dpm 2(S)-(2-benzoyl-phenylamino)-3-{4-[1,1-ditritio-2-(5-methyl-2-phenyl-oxazol-4-yl)-ethoxy]-phenyl}-propionic” for “dpm of 2(S)-(2-benzoyl-phenylamino)-3-{4-[1,1-d]tritio-2-(5-methyl-2-phenyl-oxazol-4-yl)-ethoxy]-phenyl}-propionic acid or 2,3-ditritio-2(S)-methoxy-3-{4-[2-(5-methyl-2-phenyl-oxazol-4-yl)-ethoxy]-benzo[b]thiophen-7-yl}-propionic”, “50 μl” for “50 ul”

A further data set addresses T3, PPARδ (Homo sapiens, UniProt Q03181).
T3 construct: PPARδ (aa 139 to 442); made in house; host or cells: E. coli BL21 (pLysS)
T3 sequence (Q03181 139-441 limits assumed): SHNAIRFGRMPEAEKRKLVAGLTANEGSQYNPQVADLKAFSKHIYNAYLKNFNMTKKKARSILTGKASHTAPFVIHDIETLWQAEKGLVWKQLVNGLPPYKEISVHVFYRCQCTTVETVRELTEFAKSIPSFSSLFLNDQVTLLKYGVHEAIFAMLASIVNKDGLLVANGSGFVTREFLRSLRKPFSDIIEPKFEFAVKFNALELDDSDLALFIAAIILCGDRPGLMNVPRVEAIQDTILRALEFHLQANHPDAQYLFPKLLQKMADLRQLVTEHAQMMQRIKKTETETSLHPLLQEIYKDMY
The data set can be described thus: Radioligand binding assay (SPA), PPARδ receptor binding. The conditions noted are these: GST-PPARδ-LBD fusion protein.
From the text: as §1, §2, §3
PPARδ receptor binding was assayed in HNM10 (50 mM Hepes, pH 7.4, 10 mM NaCl, 5 mM MgCl2, 0.15 mg/ml fatty acid-free BSA and 15 mM DTT). For each 96 well reaction a 500 ng equivalent of GST-PPARδ-LBD fusion protein and radioligand, e.g. 20000 dpm {2-methyl-4-[4-methyl-2-(4-trifluoromethyl-phenyl)-thiazol-5-yl-ditritiomethylsulfanyl]-phenoxy}-acetic acid, was bound to 10 μg SPA beads (PharmaciaAmersham) in a final volume of 50 μl by shaking. The resulting slurry was incubated for 1 h at RT and centrifuged for 2 min at 1300 g. The supernatant containing unbound protein was removed and the semidry pellet containing the receptor-coated beads was resuspended in 50 ul of HNM. Radioligand was added and the reaction incubated at RT for 1 h and scintillation proximity counting performed in the presence of test compounds was determined. All binding assays were performed in 96 well plates and the amount of bound ligand was measured on a Packard TopCount using OptiPlates (Packard). Dose response curves were done in triplicates within a range of concentration from 10^−10 M to 10^−4 M.

In general, IC50 refers to the point on the concentration scale where inhibition reaches its midpoint. A high value points to lower potency. The term melting point denotes the temperature, or range, at which the solid turns liquid. Take `Cc1cc(N(C)Cc2sc(-c3ccc(C(F)(F)F)cc3)nc2C)ccc1OCC(=O)O` [Example 1.6, (2-Methyl-4-{methyl-[4-methyl-2-(4-trifluoromethyl-phenyl)-thiazol-5-ylmethyl]-amino}-phenoxy)-acetic acid]: the melting point is 146 to 149 °C (dec.). The compound further displayed a half-maximal inhibitory concentration (IC50) on PPARα of 1750 nM. In addition, at PPARγ, the IC50 is above 10000 nM. The same compound displayed an IC50 at PPARδ of 17.7 nM.
For `Cc1nc(-c2ccc(C(F)(F)F)cc2)sc1CN(C)c1ccc(OCC(=O)O)c(Cl)c1` [Example 4.6, (2-Chloro-4-{methyl-[4-methyl-2-(4-trifluoromethyl-phenyl)-thiazol-5-ylmethyl]-amino}-phenoxy)-acetic acid] the same measures were 149 to 150 °C (dec.), 412 nM, above 10000 nM and 21 nM.
For `Cc1nc(-c2ccc(C(F)(F)F)cc2)sc1CN(C)c1ccc(OCC(=O)O)c(F)c1` [Example 5.7, (2-Fluoro-4-{methyl-[4-methyl-2-(4-trifluoromethyl-phenyl)-thiazol-5-ylmethyl]-amino}-phenoxy)-acetic acid] the same measures were 113 to 114 °C, 1060 nM, above 10000 nM and 49.8 nM.
For `Cc1nc(-c2ccc(C(F)(F)F)cc2)sc1CN(C)c1ccc(OCC(=O)O)c(C(F)(F)F)c1` [Example 6.8, (4-{Methyl-[4-methyl-2-(4-trifluoromethyl-phenyl)-thiazol-5-ylmethyl]-amino}-2-trifluoromethyl-phenoxy)-acetic acid] the same measures were 180 to 181 °C, 463 nM, above 10000 nM and 16.2 nM.
For `CCc1cc(N(C)Cc2sc(-c3ccc(C(F)(F)F)cc3)nc2C)ccc1OCC(=O)O` [Example 7.8, (2-Ethyl-4-{methyl-[4-methyl-2-(4-trifluoromethyl-phenyl)-thiazol-5-ylmethyl]-amino}-phenoxy)-acetic acid], the melting point was 142 to 143 °C (dec.). Besides, the IC50 at PPARα amounted to 308 nM. For the same compound, at PPARγ, the IC50 came out at 2210 nM. Moreover, the IC50 on PPARδ came out at 10.1 nM.
With `COc1cc(N(C)Cc2sc(-c3ccc(C(F)(F)F)cc3)nc2C)ccc1OCC(=O)O` [Example 8.7, (2-Methoxy-4-{methyl-[4-methyl-2-(4-trifluoromethyl-phenyl)-thiazol-5-ylmethyl]-amino}-phenoxy)-acetic acid], the melting point is 129 to 131 °C (dec.).
Compound `COCCCc1cc(N(C)Cc2sc(-c3ccc(C(F)(F)F)cc3)nc2C)ccc1OCC(=O)O` [Example 13.10, (2-(3-Methoxy-propyl)-4-{methyl-[4-methyl-2-(4-trifluoromethyl-phenyl)-thiazol-5-ylmethyl]-amino}-phenoxy)-acetic acid] displayed a melting point of 142 to 143 °C. Further, the IC50 on PPARα turned out to be 3960 nM. At PPARγ, the IC50 is above 10000 nM. Moreover, on PPARδ, the IC50 is 34 nM.
In turn, `Cc1cc(N(C)Cc2oc(-c3ccc(C(F)(F)F)cc3)nc2C)ccc1OCC(=O)O` [Example 14, (2-Methyl-4-{methyl-[4-methyl-2-(4-trifluoromethyl-phenyl)-oxazol-5-ylmethyl]-amino}-phenoxy)-acetic acid] displayed a melting point of 156 to 157 °C.
Still for that read-out and setting: the figure for `CCN(Cc1sc(-c2ccc(C(F)(F)F)cc2)nc1C)c1cc(C)c(OCC(=O)O)c(C)c1` [Example 15.5, (4-{Ethyl-[4-methyl-2-(4-trifluoromethyl-phenyl)-thiazol-5-ylmethyl]-amino}-2,6-dimethyl-phenoxy)-acetic acid] is 161 to 162 °C; for `Cc1cc(N(C)Cc2oc(-c3ccc(C(F)(F)F)cc3)nc2C)cc(C)c1OCC(=O)O` [Example 16.4, (2,6-Dimethyl-4-{methyl-[4-methyl-2-(4-trifluoromethyl-phenyl)-oxazol-5-ylmethyl]-amino}-phenoxy)-acetic acid] it is 122 to 123 °C; for `Cc1cc(NCc2sc(-c3ccc(C(F)(F)F)cc3)nc2C)ccc1OCC(=O)O` [Example 18.3, (2-Methyl-4-{[4-methyl-2-(4-trifluoromethyl-phenyl)-thiazol-5-ylmethyl]-amino}-phenoxy)-acetic acid] it is 201 to 203 °C (dec.).
Still for that read-out and setting: the result for `CCN(Cc1sc(-c2ccc(C(F)(F)F)cc2)nc1C)c1ccc(OCC(=O)O)c(C)c1` [Example 19.2, (4-{Ethyl-[4-methyl-2-(4-trifluoromethyl-phenyl)-thiazol-5-ylmethyl]-amino}-2-methyl-phenoxy)-acetic acid] reads 147 to 154 °C (dec.); that for `Cc1nc(-c2ccc(C(F)(F)F)cc2)sc1CN(C)c1ccc(OCC(=O)O)c(I)c1` [Example 20.8, (2-Iodo-4-{methyl-[4-methyl-2-(4-trifluoromethyl-phenyl)-thiazol-5-ylmethyl]-amino}-phenoxy)-acetic acid], 172.5 to 173 °C.
